Assay results reported in patent US20130324606A1, “Ester Derivatives of Bimatoprost Compositions and Methods” (ALLERGAN, INC., priority 2011, published 2013).

Assays:
[1] = test system: reconstructed human epidermis (RHE); assay: In vitro dermal irritation screening in reconstructed human epidermis; format: cell-based; settings: concentration 0.03%, Formulation A vehicle
Method: In vitro irritation screening assays were conducted for compounds described herein. Test system was the reconstructed human epidermis (RHE), as known in the art. Single dosing was employed, and endpoints were evaluated as a function of time up to 24-hrs. Endpoints were tissue viability and IL-1α release.
Test compounds included Cmpds IVa (0.03%), IIIb (0.03%), IVb (0.03%), bimatoprost (0.03%), minoxidil (5%, foam), and minoxidil (5%, solution). Administration of Cmpds IVa, IIIb, IVb and bimatoprost employed the vehicle of Formulation A. See Table 1 above. Administration of minoxidil employed minoxidil vehicle with formulation 20% H2O, 50% propylene glycol, and 30% ethanol.

[2] = Compound distribution in mouse skin by MALDI-MS imaging; format: in vivo
Method: In order to determine the penetration, accumulation and/or differential distribution of bimatoprost and compounds disclosed herein upon dermal administration, MALDI-MS (matrix assisted laser desorption ionization mass spectroscopy) imaging was conducted on explanted samples of mouse skin after topical dermal administration.
MALDI-MS imaging was conducted on mouse skin strips after administration of bimatoprost or compound disclosed herein once daily for 3 days. Samples of mouse skin were recovered 4 hr after day-3 dosing of compound. Dermal administration was conducted with vehicle, 0.03% bimatoprost, 3% bimatoprost, 0.03% Cmpd IVa, and 3% Cmpd IVa.
FIG. 16A depicts a typical explanted sample of mouse skin for these studies, wherein Cmpd IVa was applied via dermal administration. FIG. 16B depicts the result of MALDI-MS imaging. The intensity of each pixel within FIG. 16B reflects the concentration of Cmpd IVa at the corresponding point in the image depicted in FIG. 16A. FIG. 16C depicts a representative mass spectrum, corresponding to the region of FIG. 16B indicated by the white circle within FIG. 16B. Accordingly, each pixel of the image of FIG. 16B has an associated mass spectrum, providing the amounts of bimatoprost or other administered compound or metabolite thereof.

With `CCNC(=O)CCC/C=C\C[C@@H]1[C@@H](/C=C/[C@H](CCc2ccccc2)OC(C)=O)[C@H](O)C[C@@H]1O` [Cmpd IVa, 15-acetyl-bimatoprost] the “potential for irritation of the human skin” value [1] was “no indication of potential for irritation”, the “detectability in mouse skin by MALDI-MS imaging” value ([2]; after topical dermal administration at 0.03%) was “detectable” and the “skin penetration of 3.0% compound compared with 3.0% bimatoprost” value ([2]; topical dermal administration, MALDI-MS) was “similar”.
